The results in this text go back to patent US20220030866A1, “CONJUGATES OF AUXIN ANALOGS” (The State of Israel, Ministry of Agriculture & Rural …, priority 2019, published 2022).

Format in all cases: in vivo
The test system of assay [1] is avocado rootstock cuttings. The experiment in a line: rooting of avocado rootstock cuttings. The note with it: vc51 rootstock, IBA with compound; for rooting success rate of green avocado branches, in words: compared with IBA alone. An excerpt:
Avocado rootstock is extremely difficult to root. Currently, the common technique for propagating clones of avocado rootstock is to graft the desired rootstock on a seedling, and transfer to the dark to generate an etiolated branch. This branch can be rooted and grafted with the desired variety while still grafted on the seed [Frolich & Platt, California Avocado Society 1971-72 Yearbook 1972, 55:97-109]. However, the preparation of such twice-grafted seedlings is time-consuming and expensive.
The ability of exemplary conjugates to promote rooting in green avocado cuttings (in the presence of IBA) was therefore examined. In particular, Compounds 2h (MCPA-methanol), 4b (NAA-β-alanine methyl ester), 3g (2-DP-methyl-4-aminobenzoate), 3f (2-DP-p-toluidine), 1l (4-CPA-morpholine) and is (4-CPA-D-Trp) were tested.
Exemplary conjugates were also tested for rooting the hard-to-root species of avocado (VC801 rootstock) and argan, according to procedures described hereinabove.

In assay [2] the test system is mung bean cuttings. The experiment in a line: rooting of mung bean cuttings (number of adventitious roots per cutting). As to conditions: for effect on AR formation in mung bean cuttings, in words: tested at 2, 10 or 50 μM. As to the method: Mung bean cuttings have been used for many years as a model for assessing the effect of plant hormones and synthetic chemicals on the rooting process. In the present study, this system was used to ascertain activity of conjugates in inducing adventitious root (AR) formation, and to evaluate the rate of conjugate hydrolysis that releases the free active auxin. […] The rooting activity in this system is determined by the number of adventitious roots per cutting.
The mung bean model was used to examine the activity of conjugates of three phenoxy acids, 4-CPA, MCPA, and 2-DP, on rooting. For comparison, plants were treated with (unconjugated) IBA or with 2-DP conjugated to glycine methyl ester (Gly-ME).

Assay [3] has as its system cuttings from mature Eucalyptus grandis trees. The assay is described as follows: rooting of cuttings from mature Eucalyptus grandis trees. As to conditions: for rooting compared with Compound 1a (4-CPA-ethanolamine), in words: 100 μM, submerging and/or spraying, with or without 6000 ppm IBA; for rooting percentage of eucalyptus cuttings: Example 12: 6000 ppm IBA potassium salt and 50 μM conjugate dip 1 minute, leaves sprayed with 50 μM. As to the method: Eight-year-old Eucalyptus grandis plants were grown from seeds and placed in a net house in 20 liter pots containing peat and tuff (70:30, v/v), drip irrigated and fertilized with 3 liters of Shefer™ 737 liquid fertilizer (ICL Fertilizers, Israel) per cubic meter of water. Cuttings were collected from branches which grew 2-2.5 meters above the ground. Cuttings were 2-3 mm thick branches, 15 cm long, with 1-2 pairs of leaves. The leaf blades were cut in half to decrease transpiration. Cuttings were treated with 6000 ppm IBA (potassium indole-3-butyric acid) for 1 minute with or without 100 μM of each tested compound. The tested compounds were either applied to the base of the cutting, with or without IBA and/or sprayed on the foliage in the presence of 0.05% Triton™ X-100 surfactant. Cuttings were rooted in rooting tables heated to 25° C. under constant 90% humidity, in a controlled-climate greenhouse. The rooting medium contained crushed polystyrene foam: vermiculite no. 3: pit (3:2:1, v/v/v). Rooting was recorded after 30-60 days. Roots system architecture was analyzed by WinRHIZO™ system scanner and software.
Exemplary conjugates prepared as described in Example 1 were tested for their ability to promote adventitious root (AR) formation in cuttings from mature eucalyptus (Eucalyptus grandis) trees. In this model, AR formation is difficult to induce, with 5-15% root development in the presence of IBA potassium salt [Abu-Abied et al., Plant J 2012, 71:787-799], such that effective AR formation indicates a potent root formation activity.
Various concentrations and mode of applications were tested for each compound in the presence or absence of IBA (the “gold standard” rooting enhancer). A concentration of 100 μM of each conjugate was used for an initial screen of 37 conjugates, in which the compounds were applied to the base of the cutting by dipping (submerging the cutting base in a solution of the conjugate for one minute) or to the foliage by spraying. After 45 days, the cuttings were scored for the presence of callus or roots.
Conjugates prepared as described herein were evaluated in a Eucalyptus grandis rooting model, according to procedures such as described hereinabove. The bases of cuttings (a 12-15 cm long branch with the two upper leaves, whose blades were cut in half) were dipped in a solution containing 6000 ppm IBA potassium salt and 50 μM of conjugate for 1 minute, and the leaves were sprayed with 50 μM of the same conjugate (mixed with 0.5% Triton™ X-100 surfactant). The cuttings were imbedded in a heated (25° C.) rooting table containing a 1:2:3 ratio of peat:vermiculite:polystyrene, under 90% relative humidity.

The mark [4] stands for this setting: Table 1, 10 μM, water control 29.6.
[5] abbreviates: Table 1, 50 μM, water control 29.6.

Consider `COC(=O)CCNC(=O)Cc1cccc2ccccc12` [Compound 4b, NAA-β-alanine methyl ester], for which, in assay [1], the “roots per cutting of green avocado branches compared with etiolated branches treated with IBA, in words” value is “considerably more roots per cutting” and the “rooting success rate of green avocado branches, in words” value (from here on “rooting success rate”) is “considerably enhanced the rooting success rate”.

Take `CCCCNC(=O)COc1ccc(Cl)cc1` [Compound 1j]: the “rooting of mung bean cuttings (number of roots per cutting)” value (“rooting … (number of roots per cutting)” below) is 22 in assay [2] (Table 2, 2 μM); 0 in assay [2] (Table 2, 10 μM); 0 in assay [2] (Table 2, 50 μM). Also, in assay [3], the “rooting compared with Compound 1a (4-CPA-ethanolamine), in words” value (from here on “rooting compared with Compound 1a”) is given as “not more effective at inducing rooting”.

Regarding `O=C(COc1ccc(Cl)cc1)N1CCOCC1` [Compound 1l, 4-CPA-morpholine], the “rooting … (number of roots per cutting)” value is listed as 23 in assay [2] (Table 2, 2 μM); 0 in assay [2] (Table 2, 10 μM); 0 in assay [2] (Table 2, 50 μM). In assay [3], the “rooting compared with Compound 1a” value is “not more effective at inducing rooting”. The “roots per cutting of green avocado branches compared with etiolated branches treated with IBA, in words” value in assay [1] was “considerably more roots per cutting”. The “rooting success rate” value in assay [1] is reported as “considerably enhanced the rooting success rate”.

With `COC(=O)c1ccc(NC(=O)COc2ccc(Cl)cc2C)cc1` [Compound 2g], the “rooting … (number of roots per cutting)” value in assay [2] (setting [4]) and in assay [2] (setting [5]) was 0 each time.

Consider `O=C(COc1ccc(Cl)cc1)N1CCCCC1` [Compound 1k], for which the “rooting … (number of roots per cutting)” value is recorded as 25 in assay [2] (Table 2, 2 μM); 34 in assay [2] (Table 2, 10 μM); 0 in assay [2] (Table 2, 50 μM). Moreover, in assay [3], the “rooting compared with Compound 1a” value is given as “not more effective at inducing rooting”.

On to `COC(=O)[C@H]1CCCN1C(=O)COc1ccc(Cl)cc1` [4-CPA-D-Pro-methyl ester], for which the “rooting percentage of eucalyptus cuttings” value in assay [3] is listed as 10%.

For `COC(=O)c1ccnc(NC(=O)COc2ccc(Cl)cc2)c1` [Compound 1d], the “rooting … (number of roots per cutting)” value in assay [2] (setting [4]) and in assay [2] (setting [5]) was 0 throughout.

For the compound `Cc1ccc(NC(=O)COc2ccc(Cl)cc2C)nc1` [Compound 2c], the “rooting … (number of roots per cutting)” value in assay [2] (setting [4]) and in assay [2] (setting [5]) was 0 in each case.

Turning to `Cc1cc(Cl)ccc1OCC(=O)NCCO` [Compound 2a], the “rooting … (number of roots per cutting)” value in assay [2] (setting [4]) was 34.7; in assay [2] (setting [5]) it was 72.1.

Take `COC(=O)[C@@H](CC(C)C)NC(=O)COc1ccc(Cl)cc1` [4-CPA-D-Leu-methyl ester]: in assay [3], the “rooting percentage of eucalyptus cuttings” value stood at 5%.

Regarding `COC(=O)c1ccnc(NC(=O)C(C)Oc2ccc(Cl)cc2Cl)c1` (centres unmarked) [Compound 3d], the figures for the “rooting … (number of roots per cutting)” value in assay [2] (setting [4]) and in assay [2] (setting [5]) were 41.6 and 85.8, respectively.

As for `O=C(COc1ccc(Cl)cc1)N(CCO)CCO` [Compound 1m], in assay [3], the “rooting compared with Compound 1a” value was “not more effective at inducing rooting”.

In the case of `CC(Oc1ccc(Cl)cc1Cl)C(=O)O` (centres unmarked) [Compound 2-DP, 2-(2,4-dichlorophenoxy)propionic acid, reference compound], the “effect on AR formation in mung bean cuttings, in words” value in assay [2] was “positively correlated to dose”.

On to `CCC(C)NC(=O)COc1ccc(Cl)cc1` (centres unmarked) [Compound 1i], for which the “rooting … (number of roots per cutting)” value in assay [2] (Table 2, 2 μM) is reported as 23; in assay [2] (Table 2, 10 μM) it was 25; in assay [2] (Table 2, 50 μM), 0. The “rooting compared with Compound 1a” value in assay [3] is on record as “not more effective at inducing rooting”.

As for `CC(Oc1ccc(Cl)cc1Cl)C(=O)NCCO` (centres unmarked) [Compound 3a], the “rooting … (number of roots per cutting)” value in assay [2] (setting [4]) is 26.4; in assay [2] (setting [5]), 24.1.

As for `Cc1ccc(NC(=O)COc2ccc(Cl)cc2C)cc1` [Compound 2f], the “rooting … (number of roots per cutting)” value in assay [2] (setting [4]) and in assay [2] (setting [5]) was 0 each time.

With `CN(CCO)C(=O)COc1ccc(Cl)cc1` [Compound 1n], the “rooting … (number of roots per cutting)” value in assay [2] (Table 2, 2 μM) amounted to 16; in assay [2] (Table 2, 10 μM) it was 24; in assay [2] (Table 2, 50 μM) it was 35. In assay [2], the “effect on AR formation in mung bean cuttings, in words” value is listed as “moderate rooting activity at 50 μM”. Further, in assay [3], the “rooting compared with Compound 1a” value is listed as “not more effective at inducing rooting”.

In the case of `COC(=O)c1ccc(NC(=O)C(C)Oc2ccc(Cl)cc2Cl)cc1` (centres unmarked) [Compound 3g, 2-DP-methyl-4-aminobenzoate], the “rooting … (number of roots per cutting)” value in assay [2] (setting [4]) is given as 46.2. Moreover, the “rooting … (number of roots per cutting)” value in assay [2] (setting [5]) is on record as 46.4. For the same compound, in assay [1], the “roots per cutting of green avocado branches compared with etiolated branches treated with IBA, in words” value was “considerably more roots per cutting” and the “rooting success rate” value is “considerably enhanced the rooting success rate”.

As to `COC(=O)c1ccnc(NC(=O)COc2ccc(Cl)cc2C)c1` [Compound 2d], the “rooting … (number of roots per cutting)” value worked out at 64.3 in assay [2] (setting [4]) and 0 in assay [2] (setting [5]).

Turning to `Cc1ccccc1NC(=O)COc1ccc(Cl)cc1` [Compound 1e], in assay [2] (setting [5]), the “rooting … (number of roots per cutting)” value was found to be 0.

As to `COC(=O)CCNC(=O)COc1ccc(Cl)cc1C` [Compound 2b], the “rooting … (number of roots per cutting)” value in assay [2] (setting [4]) came out at 94.8; in assay [2] (setting [5]) it was 63.2.

As to `COC(=O)COc1ccc(Cl)cc1C` [Compound 2h, MCPA-methanol], in assay [1], the “roots per cutting of green avocado branches compared with etiolated branches treated with IBA, in words” value was “considerably more roots per cutting” and the “rooting success rate” value is recorded as “considerably enhanced the rooting success rate”.

With `Cc1ccccc1NC(=O)C(C)Oc1ccc(Cl)cc1Cl` (centres unmarked) [Compound 3e], the “rooting … (number of roots per cutting)” value in assay [2] (setting [4]) is reported as 37.3; in assay [2] (setting [5]), 41.7.

On to `Cc1ccccc1NC(=O)COc1ccc(Cl)cc1C` [Compound 2e], for which the “rooting … (number of roots per cutting)” value in assay [2] (setting [4]) was found to be 23.6; in assay [2] (setting [5]), 0.

Consider `Cc1ccc(NC(=O)COc2ccc(Cl)cc2)nc1` [Compound 1c], for which the “rooting … (number of roots per cutting)” value in assay [2] (setting [5]) is 0.
